Experimental data: ChEMBL document CHEMBL1201862, “PubChem BioAssay data set” (2004)
The source made the active and inactive calls.

Assays:
[1] = biological target: Kappa-type opioid receptor (Homo sapiens, UniProt P41145); test: SAR analysis of small molecule agonists of the kappa opioid receptor via a luminescent beta-arrestin assay - Set 3. [Related pubchem assays (depositor defined):AID1777, AID1785, AID1786, AID1966, AID2133, AID2136, AID2284, AID2500]; type: functional
[2] = biological target: SUMO E1/E2 (Homo sapiens, UniProt P63279+Q9UBE0+Q9UBT2); test: SAR analysis of SUMOylation using HTRF in an in-Vitro dose response assay. [Related pubchem assays (depositor defined):AID2006, AID2011, AID2018, AID2069, AID2658]; type: functional
Chain of SUMO E1/E2 (Q9UBE0 whole entry): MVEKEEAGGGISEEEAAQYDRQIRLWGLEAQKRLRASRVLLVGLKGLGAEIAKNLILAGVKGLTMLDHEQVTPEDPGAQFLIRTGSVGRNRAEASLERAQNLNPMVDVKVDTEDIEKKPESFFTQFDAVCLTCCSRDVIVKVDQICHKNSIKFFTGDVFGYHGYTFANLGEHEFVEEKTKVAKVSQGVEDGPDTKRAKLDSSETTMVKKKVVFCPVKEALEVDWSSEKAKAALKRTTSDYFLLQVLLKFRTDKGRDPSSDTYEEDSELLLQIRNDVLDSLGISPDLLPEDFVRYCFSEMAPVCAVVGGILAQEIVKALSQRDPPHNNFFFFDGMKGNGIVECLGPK
Chain of SUMO E1/E2 (Q9UBT2 whole entry): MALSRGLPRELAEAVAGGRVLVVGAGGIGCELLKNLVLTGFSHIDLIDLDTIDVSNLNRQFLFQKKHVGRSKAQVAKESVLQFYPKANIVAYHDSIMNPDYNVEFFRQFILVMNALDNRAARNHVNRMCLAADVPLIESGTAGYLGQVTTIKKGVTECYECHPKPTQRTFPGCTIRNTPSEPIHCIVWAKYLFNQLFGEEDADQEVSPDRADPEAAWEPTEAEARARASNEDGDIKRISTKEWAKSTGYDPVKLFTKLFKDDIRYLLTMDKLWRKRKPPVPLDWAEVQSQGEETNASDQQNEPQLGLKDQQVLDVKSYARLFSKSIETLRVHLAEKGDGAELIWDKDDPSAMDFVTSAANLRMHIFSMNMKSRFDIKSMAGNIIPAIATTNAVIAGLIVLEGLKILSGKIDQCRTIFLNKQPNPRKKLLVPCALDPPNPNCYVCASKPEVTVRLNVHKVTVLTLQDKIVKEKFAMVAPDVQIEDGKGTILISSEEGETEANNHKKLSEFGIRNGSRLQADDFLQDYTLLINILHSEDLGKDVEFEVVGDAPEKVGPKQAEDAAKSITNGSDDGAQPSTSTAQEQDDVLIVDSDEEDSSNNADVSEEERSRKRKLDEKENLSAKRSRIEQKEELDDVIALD
Chain of SUMO E1/E2 (P63279 whole entry): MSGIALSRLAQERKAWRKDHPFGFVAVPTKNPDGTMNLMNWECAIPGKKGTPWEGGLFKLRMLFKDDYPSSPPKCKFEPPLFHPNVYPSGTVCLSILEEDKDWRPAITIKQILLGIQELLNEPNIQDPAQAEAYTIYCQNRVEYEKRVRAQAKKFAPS

[3] = biological target: Intestinal-type alkaline phosphatase (Mus musculus, UniProt P24822); test: PubChem AID 488875; type: functional
Chain of Intestinal-type alkaline phosphatase (Mus musculus, UniProt P24822) (P24822 whole entry): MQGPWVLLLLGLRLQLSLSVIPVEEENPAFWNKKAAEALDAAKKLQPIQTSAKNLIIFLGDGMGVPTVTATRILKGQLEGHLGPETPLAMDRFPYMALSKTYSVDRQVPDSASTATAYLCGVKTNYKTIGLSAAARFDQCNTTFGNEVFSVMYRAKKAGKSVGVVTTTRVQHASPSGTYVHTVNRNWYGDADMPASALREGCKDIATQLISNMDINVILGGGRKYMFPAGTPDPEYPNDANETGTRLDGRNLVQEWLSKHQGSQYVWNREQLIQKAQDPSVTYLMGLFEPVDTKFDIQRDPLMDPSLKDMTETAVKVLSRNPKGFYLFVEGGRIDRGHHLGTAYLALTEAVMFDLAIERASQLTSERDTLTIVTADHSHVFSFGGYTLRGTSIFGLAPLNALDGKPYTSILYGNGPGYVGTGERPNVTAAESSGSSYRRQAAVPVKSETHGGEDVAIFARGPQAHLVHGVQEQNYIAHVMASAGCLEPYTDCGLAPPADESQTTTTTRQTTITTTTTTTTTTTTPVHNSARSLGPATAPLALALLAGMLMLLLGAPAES

[4] = biological target: T1, Intestinal-type alkaline phosphatase (Homo sapiens, UniProt P09923); test: human IAP activators, dose response, biochemical, luminescent, uHTS hits, set 2 (AID 488817); type: functional;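 further: potency of activators that raise enzyme activity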
T1 sequence (P09923 whole entry): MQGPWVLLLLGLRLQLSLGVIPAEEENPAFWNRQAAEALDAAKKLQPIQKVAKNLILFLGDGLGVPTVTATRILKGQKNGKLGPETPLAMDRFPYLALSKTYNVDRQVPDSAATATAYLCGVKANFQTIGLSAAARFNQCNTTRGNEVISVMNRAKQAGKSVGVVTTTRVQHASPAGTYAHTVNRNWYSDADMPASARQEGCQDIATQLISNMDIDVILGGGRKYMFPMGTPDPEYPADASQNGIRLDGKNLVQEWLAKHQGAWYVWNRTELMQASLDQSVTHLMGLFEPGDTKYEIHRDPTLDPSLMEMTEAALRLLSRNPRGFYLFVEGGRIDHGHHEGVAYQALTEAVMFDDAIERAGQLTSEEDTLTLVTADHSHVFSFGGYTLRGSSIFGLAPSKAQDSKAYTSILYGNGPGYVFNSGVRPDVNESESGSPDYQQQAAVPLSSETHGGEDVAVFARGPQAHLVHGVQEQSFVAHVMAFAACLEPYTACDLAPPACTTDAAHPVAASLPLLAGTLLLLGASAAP

[5] = biological target: T2, Alkaline phosphatase, tissue-nonspecific isozyme (Homo sapiens, UniProt P05186); test: TNAP enzyme activators, dose response, selectivity assay for human IAP activator project, biochemical, TNAP isozyme, human IAP uHTS hits (AID 488886); type: functional;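 further: potency of compounds raising TNAP activity as a selectivity check on IAP activators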
T2 sequence (P05186 whole entry): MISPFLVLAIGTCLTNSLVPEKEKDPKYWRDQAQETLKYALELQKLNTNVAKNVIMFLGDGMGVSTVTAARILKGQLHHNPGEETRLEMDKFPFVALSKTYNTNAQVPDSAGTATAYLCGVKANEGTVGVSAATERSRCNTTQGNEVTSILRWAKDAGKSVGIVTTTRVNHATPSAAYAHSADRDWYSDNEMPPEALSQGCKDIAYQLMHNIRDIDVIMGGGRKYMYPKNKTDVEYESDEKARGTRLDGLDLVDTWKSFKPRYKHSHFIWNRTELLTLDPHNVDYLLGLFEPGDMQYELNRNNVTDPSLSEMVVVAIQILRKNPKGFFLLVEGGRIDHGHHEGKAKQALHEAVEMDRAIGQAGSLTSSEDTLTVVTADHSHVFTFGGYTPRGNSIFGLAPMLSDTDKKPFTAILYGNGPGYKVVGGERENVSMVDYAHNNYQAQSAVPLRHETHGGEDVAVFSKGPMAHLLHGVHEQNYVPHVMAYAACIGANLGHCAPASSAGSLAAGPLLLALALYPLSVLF

[6] = biological target: T1, Intestinal-type alkaline phosphatase; test: human intestinal alkaline phosphatase activators, dose response, biochemical, luminescence, uHTS hits (AID 463120); type: functional
[7] = biological target: UDP-galactopyranose mutase (Mycobacterium tuberculosis, UniProt P9WIQ1); test: Inhibitors of Mycobacterium tuberculosis UDP-galactopyranose mutase (UGM) enzyme Measured in Biochemical System Using Plate Reader - 2105-02_Inhibitor_Dose_CherryPick_Activity. [Related pubchem assays (depositor defined):AID504439]
Chain of UDP-galactopyranose mutase (P9WIQ1 whole entry): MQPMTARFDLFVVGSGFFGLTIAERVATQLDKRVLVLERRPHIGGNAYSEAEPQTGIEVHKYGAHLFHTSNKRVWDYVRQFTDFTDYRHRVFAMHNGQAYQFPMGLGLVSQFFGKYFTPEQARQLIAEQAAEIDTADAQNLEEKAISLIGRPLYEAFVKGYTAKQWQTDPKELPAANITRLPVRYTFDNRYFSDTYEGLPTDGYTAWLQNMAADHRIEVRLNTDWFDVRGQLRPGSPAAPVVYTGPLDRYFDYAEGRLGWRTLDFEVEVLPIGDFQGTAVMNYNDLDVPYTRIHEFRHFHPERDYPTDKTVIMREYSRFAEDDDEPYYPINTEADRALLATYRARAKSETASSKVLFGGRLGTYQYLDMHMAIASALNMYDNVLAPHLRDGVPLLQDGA

Chain of Kappa-type opioid receptor (P41145 whole entry): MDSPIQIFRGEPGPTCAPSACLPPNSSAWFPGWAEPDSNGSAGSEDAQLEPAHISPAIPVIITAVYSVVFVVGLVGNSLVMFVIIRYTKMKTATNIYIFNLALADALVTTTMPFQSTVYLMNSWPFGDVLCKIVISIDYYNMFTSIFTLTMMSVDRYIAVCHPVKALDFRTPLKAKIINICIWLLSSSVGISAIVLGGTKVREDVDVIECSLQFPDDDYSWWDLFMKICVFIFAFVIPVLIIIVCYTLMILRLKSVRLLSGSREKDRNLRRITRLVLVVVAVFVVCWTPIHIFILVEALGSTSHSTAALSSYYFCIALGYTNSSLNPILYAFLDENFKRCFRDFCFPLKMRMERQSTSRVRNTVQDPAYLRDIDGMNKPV

COc1ccc(Cn2c(SCc3ccc(Cl)c(C(F)(F)F)c3)nnc2-c2ccccn2)cc1
EC50 [1]: 18.8 µM (inactive)

COC(=O)c1ccc2c(c1)C1C=CCC1C(c1ccc(C(=O)O)cc1)N2 (configuration not stated)
IC50 [2]: > 100 µM (inactive)

Cc1ccccc1CN1CCC(n2nccc2NC(=O)CCCc2ccccc2)CC1
EC50 [3]: 61 µM (active) | EC50 [4]: 64.1 µM (active) | EC50 [5]: 63.4 µM (active) | EC50 [6]: 70.7 µM (active)

Cc1nn(C)cc1N1C(=O)c2cccc3c(N)ccc(c23)C1=O
AC50 [7]: 1.91 µM (active)
